Measurements: the supplement of paper PMC10307832

What was measured:
Test in all cases: relative viability (nuclei count vs DMSO), 5 days (fraction); higher = more cells survive
Crenolanib = compound: CC1(COc2ccc3c(c2)ncn3-c2ccc3cccc(N4CCC(N)CC4)c3n2)COC1 [Crenolanib]
How it was run: (§1)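 Viability was read as treated-well nuclei divided by vehicle-well nuclei, using the median across plates. Lung cancer cell lines in 1536-well plates were kept overnight at 37 °C, pinned with five √10-spaced library-drug doses, and after 5 days were Hoechst-stained, imaged at 4× and counted in MetaXpress. Plates passed only with control CV below 25% and at least one doubling.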

Tivantinib = compound: O=C1NC(=O)[C@@H](c2cn3c4c(cccc24)CCC3)[C@@H]1c1c[nH]c2ccccc12 [Tivantinib]
How it was run: as §1

Crenolanib + Alpelisib = compound: CC1(COc2ccc3c(c2)ncn3-c2ccc3cccc(N4CCC(N)CC4)c3n2)COC1 [Crenolanib] + Cc1nc(NC(=O)N2CCC[C@H]2C(N)=O)sc1-c1ccnc(C(C)(C)C(F)(F)F)c1 [Alpelisib] (partner 2 µM)
How it was run: (§2)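 Relative viability equals treated-well nuclei counts divided by vehicle-well nuclei counts. Counts came from 4× images of lung cancer cell lines grown in 1536-well plates for 5 days after pin-tool dosing on the day after seeding. Dosing used one drug alone or a fixed anchor-drug dose plus five library-drug doses (not always all listed) in √10 steps, and values are medians of duplicate plates.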

Tivantinib + Pemetrexed = compound: O=C1NC(=O)[C@@H](c2cn3c4c(cccc24)CCC3)[C@@H]1c1c[nH]c2ccccc12 [Tivantinib] + Nc1nc2[nH]cc(CCc3ccc(C(=O)N[C@@H](CCC(=O)O)C(=O)O)cc3)c2c(=O)[nH]1 [Pemetrexed] (partner 0.2 µM)
How it was run: as §2

Cell Line	relative viability (Crenolanib; 0.01 µM)	relative viability (Crenolanib; 0.03162 µM)	relative viability (Crenolanib; 0.1 µM)	relative viability (Crenolanib; 0.3162 µM)	relative viability (Crenolanib; 1 µM)	relative viability (Tivantinib; 0.01 µM)	relative viability (Tivantinib; 0.03162 µM)	relative viability (Tivantinib; 0.1 µM)	relative viability (Tivantinib; 0.3162 µM)	relative viability (Crenolanib + Alpelisib; first compound 0.01 µM)	relative viability (Crenolanib + Alpelisib; first compound 0.03162 µM)	relative viability (Crenolanib + Alpelisib; first compound 0.1 µM)	relative viability (Crenolanib + Alpelisib; first compound 0.3162 µM)	relative viability (Crenolanib + Alpelisib; first compound 1 µM)	relative viability (Tivantinib + Pemetrexed; first compound 0.01 µM)	relative viability (Tivantinib + Pemetrexed; first compound 0.03162 µM)	relative viability (Tivantinib + Pemetrexed; first compound 0.1 µM)	relative viability (Tivantinib + Pemetrexed; first compound 0.3162 µM)
LU99A	1.1	0.974	1.04	1	1.02	1.06	0.76	0.909	1.01	0.565	0.503	0.49	0.526	0.506	0.173	0.201	0.16	0.178
LXF-289	0.964	0.996	0.97	1.01	0.976	1.03	1.03	0.977	1.01	1.02	1.04	1.01	1.09	1.02	0.925	0.501	0.896	0.925
NCI-H23	1.03	0.929	0.911	1	0.766	0.975	0.762	0.982	1	0.845	0.797	0.604	0.778	0.741	0.688	0.653	0.646	0.715
NCI-H322M	0.936	0.911	0.953	0.811	0.912	0.958	0.865	0.928	–	0.807	0.909	0.829	0.913	0.841	0.682	0.614	0.588	–
NCI-H358	1.03	1.04	0.856	0.924	0.672	0.94	0.909	0.865	0.355	0.897	1.01	0.756	0.991	0.605	0.178	0.177	0.191	0.167
NCI-H441	1.08	1.11	0.987	1.13	0.928	0.902	1.22	0.9	0.939	0.708	–	0.888	0.732	0.792	0.294	0.254	0.254	0.282
NCI-H460	1	0.998	0.975	0.995	0.956	0.986	0.971	0.98	0.999	0.571	0.54	0.41	0.709	0.265	0.059	0.0663	0.0596	0.0576
NCI-H520	0.93	0.999	1.05	0.908	1.05	1.14	0.968	0.867	0.964	0.868	0.878	0.863	0.99	0.848	0.695	0.716	0.631	0.652
NCI-H596	0.912	1.04	0.948	0.946	0.972	1.08	0.826	0.92	1.01	0.435	0.531	0.494	0.478	0.536	0.503	0.406	0.453	0.426
NCI-H647	0.983	0.915	0.973	1	0.929	1.06	0.992	0.881	0.946	1.16	1.28	1.04	1.21	1.11	0.17	0.192	0.18	0.184
NCI-H650	0.999	0.798	0.963	0.868	0.887	0.98	0.671	0.896	0.943	1.14	1.13	0.972	1.06	1.07	1.19	0.842	0.839	0.909
NCI-H661	0.962	1	1.02	1.04	1.01	1.07	0.971	0.956	0.811	0.894	0.609	0.479	0.597	0.542	0.922	0.961	0.975	0.844
NCI-H838	1.03	0.975	0.946	0.964	0.749	0.952	0.962	0.798	0.932	1.02	0.991	0.968	1.22	0.846	0.253	0.258	0.239	0.227
NCI-H1355	1.07	0.994	0.955	1.03	0.856	1.01	0.921	0.973	1.01	0.845	0.803	0.911	1.02	0.748	1.03	1.01	1	1.03
NCI-H1395	0.983	0.778	0.975	0.795	0.853	1.07	1.08	0.907	0.924	1.1	1.14	1.1	0.914	0.938	1.03	0.843	0.975	0.782
NCI-H1437	0.983	1	0.977	1.04	1.02	0.993	0.984	0.908	0.989	0.999	1.07	0.944	1.18	0.949	0.336	0.319	0.315	0.298
NCI-H1563	1.02	0.877	1	0.952	0.928	1.03	0.988	0.841	0.822	0.99	0.924	1.1	1.07	0.905	0.558	0.703	0.715	0.624
NCI-H1651	0.952	0.928	0.958	0.989	0.932	1.02	0.938	0.874	0.971	0.89	0.903	0.893	0.982	0.867	0.553	0.548	0.572	0.58

Cell Line	relative viability (Crenolanib; 0.01 µM)	relative viability (Crenolanib; 0.03162 µM)	relative viability (Crenolanib; 0.1 µM)	relative viability (Crenolanib; 0.3162 µM)	relative viability (Crenolanib; 1 µM)	relative viability (Tivantinib; 0.01 µM)	relative viability (Tivantinib; 0.03162 µM)	relative viability (Tivantinib; 0.1 µM)	relative viability (Tivantinib; 0.3162 µM)	relative viability (Crenolanib + Alpelisib; first compound 0.01 µM)	relative viability (Crenolanib + Alpelisib; first compound 0.03162 µM)	relative viability (Crenolanib + Alpelisib; first compound 0.1 µM)	relative viability (Crenolanib + Alpelisib; first compound 0.3162 µM)	relative viability (Crenolanib + Alpelisib; first compound 1 µM)	relative viability (Tivantinib + Pemetrexed; first compound 0.01 µM)	relative viability (Tivantinib + Pemetrexed; first compound 0.03162 µM)	relative viability (Tivantinib + Pemetrexed; first compound 0.1 µM)	relative viability (Tivantinib + Pemetrexed; first compound 0.3162 µM)
NCI-H1666	1.05	0.974	0.951	1.04	0.965	1.01	0.952	0.977	0.83	0.932	0.969	1.04	1.08	1.02	0.841	0.867	0.853	0.673
NCI-H1734	0.947	1.02	0.988	1.02	0.916	0.946	0.878	1.08	1.01	0.707	0.664	0.653	0.855	0.737	0.43	0.352	0.417	0.432
NCI-H1755	0.965	1.03	0.989	1.03	0.959	1.05	0.991	0.956	1.09	0.958	0.953	0.915	1.05	0.898	0.475	0.381	0.358	0.439
NCI-H1792	1.15	0.777	0.82	0.858	0.784	0.849	0.842	0.935	1.08	0.707	0.741	0.697	0.705	0.666	0.965	–	0.81	0.725
NCI-H1793	0.909	1.02	0.811	1.07	0.88	0.923	0.98	0.837	0.61	0.684	0.964	0.712	0.76	0.717	0.83	0.885	0.832	0.669
NCI-H1915	0.969	1	1.02	1.01	0.779	0.986	0.912	0.977	1.06	1.04	1.07	1.04	1.07	0.874	0.423	0.482	0.495	0.53
NCI-H1944	1.06	0.934	0.964	0.985	0.773	0.922	0.875	0.882	0.717	0.881	0.892	0.742	0.927	0.819	0.603	0.582	0.619	0.546
NCI-H1975	1.1	0.977	0.907	0.887	0.838	1.02	0.956	0.837	0.825	0.602	0.663	0.605	0.642	0.61	0.294	0.287	0.249	0.27
NCI-H1993	0.985	0.889	0.919	1.06	0.925	1	0.897	0.927	0.721	0.682	0.629	0.688	0.737	0.709	0.621	0.53	0.586	0.541
NCI-H2009	1.05	1.02	0.991	0.991	0.89	0.985	0.954	0.967	1.07	1.12	1.19	1.06	1.18	1.07	1.01	1.12	1.04	1.08
NCI-H2023	1.1	1.03	0.952	1.17	0.785	1.02	0.859	0.856	0.824	0.627	0.655	0.594	0.725	0.635	0.278	0.206	0.253	0.191
NCI-H2085	1	1.01	0.948	0.997	0.978	1.03	0.981	0.974	0.905	1.11	0.918	0.948	1.06	1.05	0.975	0.773	0.876	0.75
NCI-H2087	0.938	1.04	0.88	1.05	0.967	1.11	0.936	0.95	1.06	0.86	1.11	0.942	1.02	1.17	0.645	0.78	0.58	0.603
NCI-H2126	1.03	1.05	0.937	0.987	0.928	0.959	0.945	0.989	0.869	0.8	0.752	0.761	0.787	0.715	0.677	0.633	0.706	0.547
NCI-H2170	0.998	1.04	0.943	1.01	1.01	1.01	0.922	0.921	–	0.856	0.815	0.814	0.951	0.912	0.288	0.285	0.244	–
NCI-H2228	0.944	1	0.871	1.11	1.1	1.03	0.893	0.931	0.815	0.842	0.863	0.712	0.867	0.748	0.363	0.319	0.329	0.352
NCI-H2347	1.08	0.934	0.758	1.1	1.03	1.16	0.988	1.02	1.07	1.1	1.04	0.642	1.09	1.14	0.405	0.454	0.394	0.419
